The term IC50 denotes the concentration that inhibits the measured activity by half. Usually LC50 stands for the concentration lethal to half of the exposed cells or organisms. The share remaining is the share of the starting amount still present when the sample was taken. A word on the Papp: it is the rate of passage across a membrane or cell layer, normalised by area and donor concentration. Low values mean poor permeation, high ones ready permeation.

The target in one data set is T1, Aβ42 aggregation (Homo sapiens, UniProt P05067).
T1 construct: expressed in transfected cells; host or cells: E. coli BL21 (DE3) bearing pET28a-Aβ42
T1 sequence (P05067 672-713): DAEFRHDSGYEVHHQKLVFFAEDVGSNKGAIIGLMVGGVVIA
As to the kind of experiment: Aβ42 aggregation inhibition in genetically modified E. coli cells (Th-S fluorescence). Format: cell-based, Escherichia coli. The settings on record: for inhibition at 10 µM: live E. coli cells overexpressing Aβ42, read-out: Aβ42 Aggregation % inh. @10 µM. Here is the method: For Aβ42 overexpression, M9 minimal medium (10 mL) containing kanamycin (50 μg/mL) was added to a colony of E. coli BL21 (DE3) competent cells, bearing the pET28a plasmid (Novagen, Inc., Madison, WI, USA), which contains the DNA sequence encoding for Aβ42. After overnight culture, the volume necessary to obtain a 1:500 dilution was added to fresh M9 minimal medium that contained kanamycin (50 μg/mL) and thioflavin-S (Th-S, 250 µM).
For Aβ42 overexpression, the corresponding E. coli cell cultures were kept growing overnight (37 °C; 250 rpm) until they reached an OD600 = 0.6. These cultures (980 μL) were added to a mixture of 10 μL of a solution of the new compounds in DMSO and 10 μL of 100 mM isopropyl 1-thio-β-D-galactopyranoside (IPTG), to reach a final compound concentration of 10 μM. The same procedure was used for tau overexpression but employing 10 μL of 25% arabinose instead of IPTG. The resulting E. coli cultures were kept growing overnight (37 °C; 1400 rpm) using an Eppendorf Thermomixer (Hamburg, Germany). To prepare a negative control for the assay, showing the highest amount of the amyloidogenic protein, the same quantity of DMSO, without the compounds to be tested, was added to the sample. With the double purpose of obtaining positive controls devoid of the amyloidogenic proteins and assessing the potential intrinsic toxicity of the new compounds, we also prepared samples that had not been treated with either IPTG or arabinose (non-induced samples).
To assess the inhibitory activity of compounds 4–7 on Aβ42 and tau aggregation within E. coli cells, a fluorescence assay was employed, using Th-S ([…] stock solution, T1892, Sigma, St. Louis, MO, USA) in double-distilled water (Milli-Q system, Millipore, Bay City, MI, USA) and an Aminco Bowman Series 2 luminescence spectrophotometer (Aminco-Bowman AB2, SLM Aminco, Rochester, NY, USA), working at 25 °C in the wavelength range of 460–600 nm, with λex = 445 nm, slit widths of 4 nm, and λem = 485 nm. The results are given as the average of nine independent experiments, each performed in triplicate.

For data set [1], the target named is T2, human recombinant BACE-1 (hBACE-1) (Homo sapiens, UniProt P56817).
T2 construct: purchased Invitrogen, Carlsbad, CA, USA
T2 sequence (P56817 46-501): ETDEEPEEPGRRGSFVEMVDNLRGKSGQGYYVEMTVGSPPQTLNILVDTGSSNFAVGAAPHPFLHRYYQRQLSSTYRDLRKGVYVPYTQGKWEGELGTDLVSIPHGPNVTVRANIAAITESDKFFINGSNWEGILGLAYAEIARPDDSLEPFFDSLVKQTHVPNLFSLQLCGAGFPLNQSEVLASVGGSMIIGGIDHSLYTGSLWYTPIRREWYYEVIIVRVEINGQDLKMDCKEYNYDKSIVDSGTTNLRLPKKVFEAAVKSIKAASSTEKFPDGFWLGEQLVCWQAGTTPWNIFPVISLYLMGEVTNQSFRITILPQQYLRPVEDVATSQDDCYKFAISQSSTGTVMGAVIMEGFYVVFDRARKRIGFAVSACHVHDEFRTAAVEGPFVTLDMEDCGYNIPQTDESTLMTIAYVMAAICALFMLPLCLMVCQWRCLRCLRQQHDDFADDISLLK
As to the kind of experiment: In vitro hBACE-1 inhibition (fluorometric method). The class given is biochemical. The note with it: for inhibition at 15 µM: read-out: hBACE-1 % inh. @15 µM. The method, then: The inhibition of human recombinant BACE-1 (hBACE-1) (Invitrogen, Carlsbad, CA, USA) by hybrids 4–7 was evaluated by a fluorometric method. The substrate (Panvera peptide, 10 μL, 250 nM final concentration) was added to a solution (10 μL) of hybrids 4–7 or buffer in control wells (20 mM sodium acetate at pH 4.5, with 0.1% w/v CHAPS). After the addition of the enzyme (10 μL, 12.91 mU), the assay solution was incubated for 1 h at 37 °C. Thereafter, STOP solution (10 μL, 2.5 M sodium acetate) was added and the fluorescence was read at […]. The DMSO concentration in the assay solution was kept <5% (v/v) to ensure no significant loss of BACE-1 activity. The background signal, determined in control wells with all the components of the assay but BACE-1, was subtracted. The fluorescence intensities in the presence of increasing concentrations or in the absence of hybrids 4–7 were compared to calculate the percent of enzyme inhibition produced by the compounds, by applying the following expression: 100 − (IFi/IFo × 100), in which IFi and IFo are the fluorescence intensities in the presence and in the absence of the compounds, respectively. Additionally, the IC50 values were calculated (GraphPad Prism 4.03 software, GraphPad Software Inc., San Diego, CA, USA) and are given as the mean ± SEM of at least two experiments, each performed in triplicate.

A short description of data set [2]: Fish embryo acute toxicity (FET) test in zebrafish embryos. The class given is in vivo. The settings on record: in vivo, other: embryos exposed by immersion in the test solution, pH 7.4, 72 h of exposure, read-out: LC50 (CI95). The method, then: Test solutions were freshly prepared for each experiment and were renewed every 24 h. The maximum tested compound concentration was 100 µM and four additional concentrations were also prepared by applying a 1:2 dilution factor. A 1% DMSO solution was used as a vehicle control.
Six-well plates were incubated at 26 ± 1 °C under a 14:10 light:dark cycle for 72 h. To assess the potential lethality of the new compounds, we followed, every 24 h, the four parameters that are outlined in the OECD Guideline No. 236: embryo coagulation, lack of somite formation, non-detachment of the tail, and absence of a heartbeat (from 48 h onward). The percentage of lethality at each concentration that was tested for the new compounds was recorded and expressed as mean ± SEM from three or more independent experiments. […] LOAEC values were determined through an ANOVA test with Bonferroni’s post-hoc test for multiple comparisons (significance threshold: p < 0.05).

Data set [3] deals with T3, human recombinant AChE (hAChE) (Homo sapiens, UniProt P22303).
T3 construct: purchased Sigma (Milan, Italy)
T3 sequence (P22303 32-614): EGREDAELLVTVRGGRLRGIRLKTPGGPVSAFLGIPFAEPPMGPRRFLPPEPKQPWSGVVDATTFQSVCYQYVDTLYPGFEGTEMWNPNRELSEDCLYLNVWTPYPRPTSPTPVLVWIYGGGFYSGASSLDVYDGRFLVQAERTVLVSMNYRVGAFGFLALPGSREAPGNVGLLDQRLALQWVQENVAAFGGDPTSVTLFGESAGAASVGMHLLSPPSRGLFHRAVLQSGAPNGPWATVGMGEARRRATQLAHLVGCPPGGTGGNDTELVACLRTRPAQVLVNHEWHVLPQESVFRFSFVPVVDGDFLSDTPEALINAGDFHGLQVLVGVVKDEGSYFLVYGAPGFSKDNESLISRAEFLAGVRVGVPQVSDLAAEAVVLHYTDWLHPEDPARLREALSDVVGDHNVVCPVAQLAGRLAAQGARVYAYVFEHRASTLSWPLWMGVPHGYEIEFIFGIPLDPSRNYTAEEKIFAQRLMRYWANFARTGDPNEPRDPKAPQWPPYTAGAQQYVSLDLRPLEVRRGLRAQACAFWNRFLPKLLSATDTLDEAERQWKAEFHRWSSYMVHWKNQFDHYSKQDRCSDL
As to the kind of experiment: biochemical. The settings on record: for AChE vs. BChE selectivity: hBChE IC50 relative to hAChE IC50; for IC50: human recombinant AChE, Ellman method, mean ± standard error. (In Ellman's method for cholinesterases, released thiocholine reacts with DTNB.)
Description: The stock and assay solutions were prepared as follows:
Stock hAChE solution: solution of the lyophilized powder in 0.1% Triton X-100/0.1 M potassium phosphate (pH 8.0).
Stock solutions of the new compounds: 1 mM solutions in methanol, with further dilutions in this solvent to the desired concentrations.

A short description of data set [4]: Plasma stability, mouse plasma. The settings on record: 37 °C; for remaining at 1 h, 5 μM: read-out: Plasma Stability % Remaining Compound, mouse, 1 h; for remaining at 6 h, 5 μM: read-out: Plasma Stability % Remaining Compound, mouse, 6 h. Format: in vitro ADME. The method, then:
(§1) The plasma stability of the new compounds was tested using in human, mouse, and rat plasma (Seralab). One hundred μL of 5 μM solutions of the new compounds in plasma were plated and incubated at 37 °C for 0, 60, 120, and 360 min, and then treated with 300 μL of acetonitrile and centrifuged (4000× g; 60 min; 4 °C). Sample quantification was performed by UPLC/MS/MS analysis of the resulting supernatant using a UPLC QSM Waters Acquity apparatus, equipped with a Waters ACQUITY BEH C18 1.7 μm 2.1 × 50 mm column, eluting with 0.1% formic acid in water or in acetonitrile, with a flow of 0.6 mL/min. The gradient indicated in Table 1 was used in this assay.
(§2) Compound concentration was calculated from the MS peak areas and expressed as the percentage of remaining compound at the different tested times.

Another data set can be described thus: in vitro. The note with it: PAMPA, PAMPA-BBB. Background: PAMPA measures passive passage across an artificial lipid membrane.
The nature of data set [5]: Plasma stability, human plasma. The note with it: 37 °C; for remaining at 1 h, 5 μM: read-out: Plasma Stability % Remaining Compound, human, 1 h; for remaining at 6 h, 5 μM: read-out: Plasma Stability % Remaining Compound, human, 6 h. Format: in vitro ADME.
A short description of data set [6]: Plasma stability, rat plasma. The class given is in vitro ADME. The note with it: 37 °C; for remaining at 1 h, 5 μM / remaining at 6 h, 5 μM: rat, plasma; for remaining at 1 h, 5 μM: read-out: Plasma Stability % Remaining Compound, rat, 1 h; for remaining at 6 h, 5 μM: read-out: Plasma Stability % Remaining Compound, rat, 6 h. The method, then: as §1, §2
[7] abbreviates: Brain Permeability Pe, mean ± SD.
Setting [8] is: Brain permeability class, Table 4.
Where [9] appears, read: compound at 15 µM (parenthesized values).

Where “and” joins values, the source holds several entries; their conditions need not be identical. Equal entries are not always repeated. Bounds are passed on as bounds.

On to `CC1=CC2Cc3nc4cc(Cl)ccc4c(NCCCCCCCCCNC(=O)c4ccc5c(c4)C(=O)c4ccccc4C5=O)c3C(C1)C2` (centres unmarked) [Compound 4, N-{9-[(3-Chloro-6,7,10,11-tetrahydro-9-methyl-7,11-methanocycloocta[b]quinolin-12-yl)amino]nonyl}anthraquinone-2-carboxamide], for which the inhibition at 10 µM on Aβ42 aggregation was 73.3 ± 3.6%. Moreover, the IC50 in data set [1] turned out to be 2890 ± 500 nM; in data set [3], 6.91 ± 0.77 nM. The 50% lethal concentration (LC50) at 72 h in data set [2] was over 100000 nM. The “AChE vs. BChE selectivity” value in data set [3] is given as 181. Further, the results for the share remaining at 1 h, 5 μM in data set [4], in data set [5] and in data set [6] were 96%, 94.2% and 100%, respectively. Moreover, the amount remaining at 6 h, 5 μM in data set [4] came to 90.1%; in data set [5] (6 h), 97.6%; in data set [6] (6 h), 77.2%. Also, the Papp was 9.2 ± 1.2 ×10⁻⁶ cm/s in the data set “in vitro” (setting [7]) and over 5.2 ×10⁻⁶ cm/s in the data set “in vitro” (setting [8]).

In the case of `CC1=CC2Cc3nc4cc(Cl)ccc4c(NCCCCCCCCCNC(=O)c4cc(O)c5c(c4)C(=O)c4cccc(O)c4C5=O)c3C(C1)C2` (centres unmarked) [Compound 3], the inhibition at 10 µM on Aβ42 aggregation is 74.2 ± 1.6%. Further, in data set [1], the IC50 was 1500 ± 380 nM. Further, in data set [2], the LC50 at 72 h was over 100000 nM. The fraction remaining at 1 h, 5 μM was found to be 97.2% in data set [4], 100% in data set [5] and 98% in data set [6]. The amount remaining at 6 h, 5 μM in data set [4] amounted to 92.9%; in data set [6] (6 h), 67.9%. The Papp in “in vitro” (setting [8]) was over 5.2 ×10⁻⁶ cm/s. The “% hydrolyzed in human plasma after 6 h” value in data set [5] (6 h) worked out at 15.6%.

Turning to `CC(=O)c1cccc(C(=O)NCCCCCCCCCNc2c3c(nc4cc(Cl)ccc24)CC2C=C(C)CC3C2)c1` (centres unmarked) [Compound 7, 3-Acetyl-N-{9-[(3-chloro-6,7,10,11-tetrahydro-9-methyl-7,11-methanocycloocta[b]quinolin-12-yl)amino]nonyl}benzamide], on Aβ42 aggregation (live E. coli cells overexpressing Aβ42), the “Aβ42 Aggregation % inh. @10 µM” value was 73.1 ± 4.8%. In addition, at Aβ42 aggregation, the inhibition at 10 µM worked out at 73%. The IC50 is at most 15000 nM in data set [1]; 6 nM and 5.97 nM in data set [3]. Besides, in data set [1] (compound at 15 µM (parenthesized values), 15 µM), the “hBACE-1 % inh. @15 µM” value is on record as “(48.1 ± 0.3) %”. Further, the inhibition at 15 µM in data set [1] (setting [9]) was determined as 48%. Besides, in data set [2], the LC50 at 72 h was over 100000 nM. The fraction remaining at 1 h, 5 μM is 97.5% in data set [4], 100% in data set [5] and 98.9% in data set [6]. The amount remaining at 6 h, 5 μM turned out to be 96% in data set [4], 100% in data set [5] (6 h) and 86% in data set [6] (6 h). Further, the values for the Papp in the data set “in vitro” (setting [7]) and in “in vitro” (setting [8]) were 16.5 ± 1.1 ×10⁻⁶ cm/s and over 5.2 ×10⁻⁶ cm/s, respectively. For the same compound, the “Plasma Stability % Remaining Compound, rat, 6 h” value in data set [6] (6 h, 5 μM) turned out to be 85.8%.

For the compound `CC1=CC2Cc3nc4cc(Cl)ccc4c(NCCCCCCCCCNC(=O)c4ccc5c(c4)C(=O)c4ccccc4-5)c3C(C1)C2` (centres unmarked) [Compound 5, N-{9-[(3-Chloro-6,7,10,11-tetrahydro-9-methyl-7,11-methanocycloocta[b]quinolin-12-yl)amino]nonyl}-9-fluorenone-2-carboxamide], the inhibition at 10 µM at Aβ42 aggregation came out at 69.8 ± 1.2%. The values for the IC50 in data set [1] and in data set [3] were 5630 ± 10 nM and 5.93 ± 0.26 nM, respectively. In addition, in data set [2], the LC50 at 72 h is over 100000 nM. For the same compound, the “AChE vs. BChE selectivity” value in data set [3] is 149. In addition, the fraction remaining at 1 h, 5 μM in data set [4] turned out to be 95.7%; in data set [5], 88.5%; in data set [6] it was 93.6%. Also, the figures for the amount remaining at 6 h, 5 μM in data set [4], in data set [5] (6 h) and in data set [6] (6 h) were 90.4%, 80.4% and 84.7%, respectively. Also, the Papp in the data set “in vitro” (setting [7]) was 6.2 ± 0.8 ×10⁻⁶ cm/s; in the data set “in vitro” (setting [8]) it was over 5.2 ×10⁻⁶ cm/s.

In the case of `CC1=CC2Cc3nc4cc(Cl)ccc4c(NCCCCCCCCCNC(=O)c4cccc(C(=O)c5ccccc5)c4)c3C(C1)C2` (centres unmarked) [Compound 6, 3-Benzoyl-N-{9-[(3-chloro-6,7,10,11-tetrahydro-9-methyl-7,11-methanocycloocta[b]quinolin-12-yl)amino]nonyl}benzamide], the inhibition at 10 µM at Aβ42 aggregation turned out to be 72.6 ± 2.7%. The half-maximal inhibitory concentration (IC50) was at most 15000 nM in data set [1] and 11.6 ± 0.9 nM in data set [3]. Further, the inhibition at 15 µM in data set [1] (setting [9]) was determined as 61.5%. Further, the LC50 at 72 h in data set [2] stood at 40100 nM. Moreover, the results for the fraction remaining at 1 h, 5 μM in data set [4], in data set [5] and in data set [6] were 98.3%, 100% and 96%, respectively. Further, the share remaining at 6 h, 5 μM in data set [4] came out at 76.9%; in data set [5] (6 h) it was 90.8%; in data set [6] (6 h), 92.4%. The results for the Papp in the data set “in vitro” (setting [7]) and in the data set “in vitro” (setting [8]) were 7.4 ± 0.3 ×10⁻⁶ cm/s and over 5.2 ×10⁻⁶ cm/s, respectively.

Values taken from paper PMC11359831, “Stepwise Structural Simplification of the Dihydroxyanthraquinone Moiety of a Multitarget Rhein-Based Anti-Alzheimer Lead to Improve Drug Metabolism and Pharmacokinetic Properties” (Pharmaceutics, 2024).
